Data set [1] is described as follows: Acute toxicity in rats. The following applies: rat, in vivo, po, Bliss method.
The subject of data set [2] is NMDA receptor. The data set is described as follows: Electrophysiology of hippocampus's pyramidal cell: NMDA-induced current. It counts as cell-based. The note with it: 100 μM NMDA; read-out: IC50 of suppression of current induced by NMDA.
The nature of data set [3]: Summary of all three algogenic models. It counts as in vivo. The note with it: in words. The source says: All the compounds mentioned above have profound for further value development.
The subject of data set [4] is rat. The data set is described as follows: Rat 5% formalin paw s.c. It counts as in vivo. The following applies: p.o., read-out: Analgesia ED50. The method, then: (§1) Two species of animals (mice and rats) and four types of pain testing models (i.p. 0.7% acetic acid, s.c. 5% formalin, hot plate 55° C., focused radiant heat) were used.
In data set [5] the test system is rats. The data set is described as follows: Precipitated withdrawal test in rats. It counts as in vivo. The note with it: for Abstinence syndrome (IV ± SD): 14 days, Narcan i.p. 4 mg/kg. The method, then:
48 rats were divided into 4 groups (12 for each group, ? fifty-fifty). Morphines IV-12-1 (75 mg/Kg), IV-12-2 (100 mg/Kg) and saline, was administered respectively using progressive dose increase for 14 days and 3 times per day. On the 15th day, Narcan is injected (i.p. 4 mg/kg) to precipitate withdrawal. The withdrawal syndrome was observed and the rats wre weighed at 30, 60 and 120 minutes after the injection respectively.

The subject of data set [6] is Mice. The data set is described as follows: Jumping test in mice (Narcan precipitated). It counts as in vivo. The following applies: for Times for jump (IV ± SD): 3 times per day for 7 days, Narcan i.p. 2 mg/kg. The method, then:
Sixty-four mice were divided into 4 groups (16 for each group, ? fifty-fifty) Morphine, IV-12-1 (75 mg/Kg) IV-12-2 (100 mg/Kg) and saline were administrated respectively 3 times per day for 7 days with progressive dose increase. On the 7th day, Narcan is injected (i.p. 2 mg/kg) to precipitate withdrawal. The number of times for the mice to jump was recorded and the incidence of the jump calculated.

In data set [7] the test system is Mice. In words: Mice 55° C. hot plate. It counts as in vivo. The note with it: Mus musculus, po, read-out: Analgesia ED50. The method, then:
as §1

Data set [8] concerns Mice. In words: Swelling caused by p-dimethylbenzene in mice. It counts as in vivo. The following applies: p.o. 15 or 30 mg/kg.
In data set [9] the test system is Mice. In words: Spontaneous activities of mice after oral IV-12. It counts as in vivo. The note with it: p.o. 15 or 30 mg/kg.
The subject of data set [10] is rat. In words: Rat tail flick model (focused radiant heat). It counts as in vivo. The method, then:
A 8.75 mm-projecting lamp (12 v, 50 w) was used to give out focused radiant heat. The terminal 3 cm of the tail is exposed to the heat. The intensity of the focused radiant heat is regulated by a transformer to ensure that the time required to elicit a tail flick response is within 3-5 seconds. The rat's pain threshold is pre-tested for 2-3 times; and only animals with stable reactions were used in the pharmaceutical test. The test substance is taken orally 20 mg/kg. The number of rats whose increase in time for eliciting a tail flick response is by 100% or more at the peak of the drug action (30-45 minutes after administration) is used to calculate analgesic effect.
as §1

Marks after values point to notes of the source that are not given here.

A word on the LD50: it is the dose at which mortality reaches 50%. The IC50 is the concentration at which inhibition is half-maximal. By ED50 is commonly meant the dose at which the effect has come halfway, by size or by number of responders.

`Nc1ccc(CN2CCN(CC(=O)c3ccccc3)CC2)cc1` [IV-12, N^1-(4-aminobenzyl)-N^4-phenacyl piperazine] returned an LD50 in [1] of 414 mg/kg. In data set [2], the IC50 is 1110 ± 1000 nM. The “Analgesic effect on all three algogenic models” value in data set [3] is on record as “powerful analgesic effects”. For the same compound, the “Sedative effect on all three algogenic models” value in [3] is “rather significant sedative effect”. The ED50 in [4] was determined as 102 mg/kg; in [7], 20.6 mg/kg. Also, the “Percent of the lost weight (IV ± SD)” value was −1.8 ± 1.4 in [5] (IV-12-1 (75 mg/Kg), 30 min after Narcan); −2.6 ± 1.5 in [5] (IV-12-1 (75 mg/Kg), 60 min after Narcan); −3.1 ± 1.5 in [5] (IV-12-1 (75 mg/Kg), 120 min after Narcan); −3.1 ± 1.3 in data set [5] (IV-12-2 (100 mg/Kg), 30 min after Narcan); −3.9 ± 1.4 in data set [5] (IV-12-2 (100 mg/Kg), 60 min after Narcan); −4.2 ± 1.5 in data set [5] (IV-12-2 (100 mg/Kg), 120 min after Narcan). Also, the “Abstinence syndrome (IV ± SD)” value is 4.7 ± 3.9 in data set [5] (IV-12-1 (75 mg/Kg)) and 5.3 ± 2.1 in data set [5] (IV-12-2 (100 mg/Kg)). Besides, the “Incidence for jump (%)” value in data set [6] (IV-12-1 (75 mg/Kg)) is on record as 43.8*^## %; in [6] (IV-12-2 (100 mg/Kg)), 62.5* %. Moreover, the “Times for jump (IV ± SD)” value in data set [6] (IV-12-1 (75 mg/Kg)) amounted to 9 ± 18; in [6] (IV-12-2 (100 mg/Kg)), 33 ± 40. Further, in data set [8], the “Antagonism for swelling caused by p-dimethylbenzene” value was “no antagonism”. Further, the “Behaviour / spontaneous activities” value in data set [9] is “quiet and suppressed from spontaneous activities”. Also, the “Increase (tail flick) (%)” value in data set [10] (20 mg/kg, Table 5 summary) turned out to be 34%. In addition, the change in vivo at 20 mg/kg in data set [10] (Rattus norvegicus, po, orally 20 mg/kg, read-out: increase (%) of tail flick time) was 34%. Besides, the “After (s) tail flick time” value in [10] (orally 20 mg/kg, 30-45 minutes after administration) worked out at 10.05 s.
